Assay results taken from patent US7091347B2, “Bicyclic pyridine and pyrimidine p38 kinase inhibitors” (Roche Palo Alto LLC, priority 2002, dated 2006).
Where a name gives a salt, the structure may show the parent alone.

Experiments:
p38 MAP kinase = molecular target: T1, p38 MAP kinase (UniProt Q16539); experiment: Inhibition of p-38 (MAP) kinase in vitro assay (transfer of γ-33P from ATP to Myelin Basic Protein); format: biochemical; settings: phosphorylated recombinant p38 MAP kinase, MBP substrate, γ-33P-ATP, 30° C.
T1 construct: fused on or other part: A His tag is implied by purification on a nickel column
Method: The p-38 MAP kinase inhibitory activity of compounds of this invention in vitro was determined by measuring the transfer of the y-phosphate from γ-^33P-ATP by p-38 kinase to Myelin Basic Protein (MBP), using the a minor modification of the method described in Ahn, N. G.; et al. J. of Biol. Chem. Vol. 266(7), 4220–4227, (1991)
The phosphorylated form of the recombinant p38 MAP kinase was expressed with SEK-1 and MEKK in E. Coli (see, Khokhlatchev, A. et al. J. of Biol. Chem. Vol. 272(17), 11057–11062, (1997) and then purified by affinity chromatography using a Nickel column.
The phosphorylated p38 MAP kinase was diluted in kinase buffer (20 mM 3-(N-morpholino)propanesulfonic acid, pH 7.2, 25 mM β-glycerol phosphate, 5 mM ethylene glycol-bis(beta-aminoethyl ether)-N,N,N′,N′-tetraacetic acid, 1 mM sodium vanadate, 1 mM dithiothreitol, 40 mM magnesium chloride). Test compound dissolved in DMSO or only DMSO (control) was added and the samples were incubated for 10 min. at 30° C. The kinase reaction was initiated by the addition of a substrate cocktail containing MBP and γ-^33P-ATP. After incubating for an additional 20 min. at 30° C., the reaction was terminated by adding 0.75% phosphoric acid. The phosphorylated MBP was then separated from the residual γ-^33P-ATP using a phosphocellulose membrane (Millipore, Bedfrod, Mass.) and quantitated using a scintillation counter (Packard, Meriden, Conn.).
The p-38 inhibitory activities (expressed as IC50, the concentration causing 50% inhibition of the p-38 enzyme being analyzed) of the compounds listed in Table 1 in the specification are between 0.01 μM and 10 μM.

melting point [°C] | IC50 (p38 MAP kinase) [nM] | SMILES
 | 744 | c1ccc(Cc2cc3cnc(NC4CCCC4)nc3o2)cc1 [Compound 30, 2-(cyclopentylamino)-6-benzyl-furano[2,3-d]pyrimidine]
 | 226 | Fc1ccc(Sc2cc3cnc(NC4CCOCC4)nc3s2)c(F)c1 [Compound 41, [6-(2,4-Difluorophenylsulfanyl)thieno[2,3-d]pyrimidin-2-yl]-(tetrahydropyran-4-yl)-amine]
217 to 219 |  | Fc1ccccc1Cc1cc2cnc(NC3CCOCC3)nc2s1 (as salt: hydrochloride) [Compound 25, 2-(tetrahydropyran-4-ylamino)-6-[(2-fluorophenyl)methyl]thieno[2,3-d]pyrimidine]
 | 135 | Cn1c(Cc2ccccc2)cc2cnc(NC3CCCC3)nc21 [Compound 33, 2-(cyclopentylamino)-6-benzyl-7-methyl-pyrrolo[2,3-d]pyrimidine]

More lines, now with the values behind:

SMILES | melting point [°C] | IC50 (p38 MAP kinase) [nM]
O=C(c1cc2cnc(NC3CCOCC3)nc2s1)c1ccccc1F [Compound 9, 2-(tetrahydropyran-4-ylamino)-6-(2-fluorobenzoyl)thieno[2,3-d]pyrimidine] | 195.2 to 195.5 | 
CS(=O)(=O)N1CCC(Nc2ncc3cc(C(O)c4ccccc4)sc3n2)CC1.Cl (centres unmarked) [Compound 23] | 152.2 to 162.1 | 128
O=C(c1ccccc1)c1cc2cnc(N[C@H]3CC[C@H](O)CC3)nc2s1 [Compound 1] | 102.6 to 103.8 | 104
Cl.O=C(c1ccccc1)c1cc2cnc(NC3CCOCC3)nc2s1 [Compound 3] | 219.5 to 220.5 | 221
